Bridge positions count the residues as written; N and C are the ends. Peptide text beside a SMILES is read from it.
Tests used:
[1] = biological target: ICAM-1/LFA-1 dependent cell aggregation (Homo sapiens, UniProt P05362); settings: literature reports; cited from earlier work
[2] = Solubility of the peptide; assay type: physicochemical; settings: NS, not soluble; precluded testing; listed as R4 to A mutation
Experimental: (§1) Cysteine-constrained peptides, synthesized by Biopeptide (San Diego, Calif., USA), were isolated using high-performance liquid chromatography, and their correct mass was confirmed by mass spectrometry. The peptides were dissolved in 5% dimethylsulfoxide in phosphate-buffered saline (PBS) at concentrations of 10 mm and stored at −80° C. until use. The mAb directed against LFA-1 (TS1/18) was purified from a hybridoma line ([…], Manassas, Va.) as described previously (Oj, V. T. & Herzenberg, T. (1980) Immunoglobulin-producing hybrid celllines. In Selected Methods in Cellular Immunology (Mishell, B. B. & Shiigi, S. M.,eds), H. H. Freeman, New York; Larson, R. S., Brown, D. C. & Sklar, L. A.(1997) Retinoic acid induces aggregation of the acute promyelocytic leukemia cell lineNB-4 by utilization of LFA-1 and ICAM-2.Blood 90, 2747-2756; Rothlein, R. & Springer, T. A. (1986) The requirement for lymphocyte function associated antigen 1 in homotypic leukocyte adhesion stimulated by phorbol ester. J. Exp.Med. 163, 1132-1149).

[3] = biological target: T1, LFA-1 binding to ICAM-1 (JY cells) (Homo sapiens, UniProt P05362); test: LFA-1:ICAM-1 dependent JY cell aggregation assay (2 hours); assay type: cell-based
T1 construct: endogenous in cells; host or cells: JY cells
Experimental: as §1
(§2) JY cells were maintained in RPMI-1640 medium supplemented with 10% fetal bovine serum at 37° C. in an atmosphere containing 5% CO2 in air. The aggregation of JY cells, which is dependent on LFA-1 binding to ICAM-1, was determined as previously reported (Shannon, J. P., Silva, M. V., Brown, D. C. & Larson, R. S. (2001) Novel cyclic peptide inhibits intercellular adhesion molecule-1-mediated cell aggregation. J. Pept. Res. 58, 140-150; Larson, R. S., Brown, D. C. & Sklar, L. A.(1997) Retinoic acid induces aggregation of the acute promyelocytic leukemia cell lineNB-4 by utilization of LFA-1 and ICAM-2.Blood 90, 2747-2756; Rothlein, R. & Springer, T. A. (1986) The requirement for lymphocyte function associated antigen 1 in homotypic leukocyte adhesion stimulated by phorbol ester. J. Exp.Med. 163, 1132-1149). Briefly, JY cells were washed twice with serum-free media and resuspended at a concentration of 4×10^5 cells/mL. Cells were then preincubated with various concentrations of peptides or mAb for 15 minutes at room temperature. A 50 μL aliquot of cells was seeded in each well of a 96-well flat-bottomed microtiterplate followed by the addition of either peptide or mAb to a final volume of 100 μL. Cells were allowed to aggregate at 37° C. in humidified air containing 5% CO2. Within each well, the number of aggregates and the total number of free (single) cells were counted by inverted phase microscopy. Percent aggregation, P, was then determined as follows: P=100(1−Ff/Fi), where Ff (Fi) is the final (initial) number of free cells. Percent aggregation was then used to calculate percent inhibition, I, as follows: […], where Pi (Pc) is the percent aggregation with modulatory peptide (control). The constants for 50% inhibition (IC50) were derived from a linear fit to the percent inhibition at four concentrations (50 μm, 100 μm, 500 μm, and 1 mm) of inhibitory peptide. Each experiment was performed at least three times, with each condition performed in duplicate. The data are reported as the mean values and the SDs of each IC50.

[4] = test system: ischemia-reperfusion injury; settings: in vivo; cited from earlier work
[5] = biological target: T1, LFA-1 binding to ICAM-1 (JY cells); test: LFA-1:ICAM-1 dependent cell aggregation assay, slightly modified (360 minute incubations); assay type: cell-based
Experimental: as §2
The same general procedure was used as described in Example 1.
The functional activity of each IP02 derivative was measured in a slightly-modified version of the previously described cell aggregation assay (Shannon, J. P., Silva, M. V., Brown, D. C., & Larson, R. S. (2001). Novel cyclic peptide inhibits intercellular adhesion molecule-1-mediated cell aggregation. J. Pept. Res. 58, 140-150; Merchant, S. H., Gurule, D. M., Larson, R. S. (2003). Amelioration of ischemia-reperfusion injury with cyclic peptide blockade of ICAM-1. Am. J. Physiol. Heart Circ. 284,H1260-1268; Larson, R. S., Brown, D. C., and Sklar, L. A. (1997). Retinoic acid induces aggregation of the acute promyelocytic leukemia cell line NB-4 by utilization of LFA-1 and ICAM-2. Blood 90, 2747-2756; Rothlein, R. and Springer, T. A. (1986). The requirement for lymphocyte function-associated antigen 1 in homotypic leukocyte adhesion stimulated by phorbol ester. J. Exp. Med. 163, 1132-1149). Longer incubations (360 minutes) were used here instead of the earlier 120 minute incubations in order to increase the observed differences among peptide antagonists. Of all the amino acid substitutions, replacement of R6 with K, to produce IP02-K6, improved the IC50 the most. […] Alternatively, replacement of L2 or L3 with V (IP02-V2 and IP02-V3) or A8 with L (IP02-L8) abrogated activity, with IC50s exceeding 1,000 μM.

ICAM-1/LFA-1 dependent cell aggregation, sequence (P05362 28-532): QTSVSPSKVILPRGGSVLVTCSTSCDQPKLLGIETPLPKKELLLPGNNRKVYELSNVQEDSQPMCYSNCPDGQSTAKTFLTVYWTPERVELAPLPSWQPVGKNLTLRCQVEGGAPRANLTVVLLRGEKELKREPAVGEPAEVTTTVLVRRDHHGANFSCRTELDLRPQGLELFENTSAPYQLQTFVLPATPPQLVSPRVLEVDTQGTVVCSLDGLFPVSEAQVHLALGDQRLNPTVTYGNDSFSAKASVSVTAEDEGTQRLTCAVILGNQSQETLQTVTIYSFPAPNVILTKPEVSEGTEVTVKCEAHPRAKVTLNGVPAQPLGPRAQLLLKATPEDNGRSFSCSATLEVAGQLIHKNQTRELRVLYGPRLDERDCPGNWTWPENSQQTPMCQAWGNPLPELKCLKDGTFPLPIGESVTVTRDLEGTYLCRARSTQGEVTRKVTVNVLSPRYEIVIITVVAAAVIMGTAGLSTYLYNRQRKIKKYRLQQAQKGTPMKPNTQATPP
T1 sequence (P05362 28-532): as above

In the case of `CC[C@H](C)[C@@H]1NC(=O)[C@H](CO)NC(=O)[C@H](CCCNC(=N)N)NC(=O)[C@H](CCSC)NC(=O)[C@H](CCCNC(=N)N)NC(=O)[C@H](CC(C)C)NC(=O)[C@H](CC(C)C)NC(=O)[C@@H](N)CSSC[C@@H](C(=O)O)NC1=O` [IP01, CLLRMRSIC] (H-CLLRMRSIC-OH; disulfide 1-9; N-terminus and C-terminus assumed), the “inhibition of ICAM-1/LFA-1 dependent cell aggregation (in words)” value [1] is given as “potent in vitro inhibitor”.
For `CC[C@H](C)[C@@H]1NC(=O)[C@H](CO)NC(=O)[C@H](CCCNC(=N)N)NC(=O)[C@H](CCSC)NC(=O)[C@H](C)NC(=O)[C@H](CC(C)C)NC(=O)[C@H](CC(C)C)NC(=O)[C@@H](N)CSSC[C@@H](C(=O)O)NC1=O` [IP01-A4, CLLAMRSIC] (H-CLLAMRSIC-OH; disulfide 1-9; N-terminus and C-terminus assumed), the “solubility of the peptide” value [2] was “insoluble”.
With `CC[C@H](C)[C@@H]1NC(=O)[C@H](CO)NC(=O)[C@H](C)NC(=O)[C@H](CCSC)NC(=O)[C@H](CCCNC(=N)N)NC(=O)[C@H](CC(C)C)NC(=O)[C@H](CC(C)C)NC(=O)[C@@H](N)CSSC[C@@H](C(=O)O)NC1=O` [IP01-A6, CLLRMASIC] (H-CLLRMASIC-OH; disulfide 1-9; N-terminus and C-terminus assumed) the IC50 [3] was over 1000 µM.
With `CC[C@H](C)[C@@H]1NC(=O)[C@H](C)NC(=O)[C@H](CCCNC(=N)N)NC(=O)[C@H](CCSC)NC(=O)[C@H](CCCNC(=N)N)NC(=O)[C@H](CC(C)C)NC(=O)[C@H](CC(C)C)NC(=O)[C@@H](N)CSSC[C@@H](C(=O)O)NC1=O` [IP01-A7, CLLRMRAIC] (H-CLLRMRAIC-OH; disulfide 1-9; N-terminus and C-terminus assumed) the “bioactivity after alanine substitution (in words)” value ([3]; listed as S7 to alanine substitution) was “retained significant bioactivity”.
For `CSCC[C@@H]1NC(=O)[C@H](CCCNC(=N)N)NC(=O)[C@H](CC(C)C)NC(=O)[C@H](CC(C)C)NC(=O)[C@@H](N)CSSC[C@@H](C(=O)O)NC(=O)[C@H](C)NC(=O)[C@H](CO)NC(=O)[C@H](CCCNC(=N)N)NC1=O` [IP01-A8, CLLRMRSAC] (H-CLLRMRSAC-OH; disulfide 1-9; N-terminus and C-terminus assumed), the “inhibition of ICAM-1/LFA-1 dependent cell aggregation (in words)” value [1] is given as “enhanced inhibition” and the “bioactivity after alanine substitution (in words)” value ([3]; listed as I8 to alanine substitution) is given as “retained significant bioactivity”.
For `CSCC[C@@H]1NC(=O)[C@H](CCCNC(=N)N)NC(=O)[C@H](CC(C)C)NC(=O)[C@H](CC(C)C)NC(=O)[C@@H](N)CSSC[C@@H](C(=O)O)NC(=O)[C@H](C)NC(=O)[C@H](CO)NC(=O)[C@H](CCCCN)NC1=O` [IP02-K6, CLLRMKSAC] (H-CLLRMKSAC-OH; disulfide 1-9; N-terminus and C-terminus assumed), the “inhibition of ICAM-1/LFA-1 dependent cell aggregation (in words)” value [1] is given as “more potent inhibitor of ICAM-1 than IP01”, the “inhibition of ischemia-reperfusion injury (in words)” value [4] is given as “potent in vivo inhibitor” and the “IC50 fold smaller than lead peptide IP01” value [5] is given as about 6 fold.

— patent publication US20050048579A1, “Tertiary structures of ICAM-1/LFA-1 modulators” (priority 2003, published 2005)
